Measurements as given in US10973912B2, “Treatment for myopathy” (Children's Medical Center Corporation, priority 2015, dated 2021).

Key:
ryr1b mutants = experiment: Body angle measurement after 20 days of treatment; type: in vivo, zebrafish (Danio rerio)
Experimental: In FIG. 10A, body angles of ryr1b mutants after 20 days of NIF treatment (10.0 μg/mL) are corrected and statistically indistinguishable from wild-type controls. […] Angles were measured by first drawing/extending straight lines between the eyes of the larva as well as along the midline of the trunk (shown by dotted red lines). The angle of intersection was determined using Adobe Photoshop CS3 software (WT-DMSO: 179.1±0.9°, n=6; WT-NIF: 176.8±1.1°, n=6; ryr1b-DMSO: 142.6±6.2°, n=11; ryr1b-NIF: 174.4±2.0°, n=4). Significance was determined by a one-way ANOVA (F=13.60, P<0.0001), followed by pairwise Tukey's HSD post hoc tests. […] Three independent trials were performed with larvae from three different clutches, examining a total of 14-20 wild-type and ryr1b larvae from both DMSO- and NIF-treated groups. Genotypes of individual embryos were confirmed by genomic PCR following the study. Significance was determined by a one-way ANOVA (F=10.03, P=0.0009), followed by pairwise Tukey's HSD post hoc tests. […] One representative 20-minute time interval within the recording period is shown.
This bending is likely a consequence of skeletal muscle weakness, and may be analogous to neck and trunk flexor weakness observed in human patients with MmD (FIG. 10A). To determine if NIF could correct this abnormality, larvae were treated with the compound from 1 to 20 dpf. After 20 days, body angles were measured as the angle of intersection between two lines, one drawn between the eyes of each larva and one drawn along the trunk midline. […] These improvements in morphology reflect long-term strengthening of ryr1b skeletal muscles as a result of exposure to NIF.

ryr1b zebrafish = experiment: Activity monitoring (Noldus Daniovision), spontaneous swimming at 20 dpf; type: in vivo, zebrafish (Danio rerio); settings: long-term treatment
Experimental: In FIG. 10A, body angles of ryr1b mutants after 20 days of NIF treatment (10.0 μg/mL) are corrected and statistically indistinguishable from wild-type controls. […] Angles were measured by first drawing/extending straight lines between the eyes of the larva as well as along the midline of the trunk (shown by dotted red lines). The angle of intersection was determined using Adobe Photoshop CS3 software (WT-DMSO: 179.1±0.9°, n=6; WT-NIF: 176.8±1.1°, n=6; ryr1b-DMSO: 142.6±6.2°, n=11; ryr1b-NIF: 174.4±2.0°, n=4). Significance was determined by a one-way ANOVA (F=13.60, P<0.0001), followed by pairwise Tukey's HSD post hoc tests. […] Significance was determined by a one-way ANOVA (F=10.03, P=0.0009), followed by pairwise Tukey's HSD post hoc tests. […]
Zebrafish behavioral parameters were defined using the Noldus Daniovision activity monitoring system. […] Swimming behaviors were recorded over the entire 2.0-hour period with an infrared light source. […] Behavioral parameters recorded include frequency, mean velocity, total distance, and cumulative duration of movement, and reflect the average of all larvae in an experimental group.
Next, to determine if long-term NIF treatment affects ryr1b motor functions, spontaneous swimming behaviors of 20 dpf larvae were quantified using the Noldus Daniovision. […]

O=C(N/N=C/c1ccc([N+](=O)[O-])o1)c1ccc(O)cc1 [Nifuroxazide]
body angle, wild-type larvae (ryr1b mutants; 20 days of treatment, 10.0 μg/mL, WT, n=6): 176.8±1.1 ° | body angle, ryr1b mutants (ryr1b mutants; 20 days of treatment, 10.0 μg/mL, ryr1b, n=4, ryr1b-DMSO 142.6±6.2): 174.4±2.0 ° | body angles of treated ryr1b mutants (ryr1b mutants; treated from 1 to 20 dpf): significantly increased and statistically indistinguishable from unaffected controls | distance travelled during 2.0-hour period (ryr1b zebrafish): large and robust increase on the distance travelled by ryr1b zebrafish
